Assay results taken from patent publication US20190016689A1, “NOVEL FLUORINATED QUINAZOLINE DERIVATIVES AS EGFR INHIBITORS” (TRILLIUM THERAPEUTICS INC., priority 2016, published 2019).
One block for each molecule: values may come before it.

What was measured:
CYP 1A2 = CYP 1A2 (Homo sapiens, UniProt P05177); experiment: CYP450 inhibition; assay type: in vitro ADME
Experimental: (§1) Prepare stock solutions of the test compound and positive control compounds described in Table 8 in DMSO at 0, 0.2, 1, 2, 10, 50, 200, 2000 and 10000 μM. Transfer 1 μL of the stock solutions to the Incubation Plate. The final concentrations of test compound or positive control compound are 0, 0.001, 0.005, 0.01, 0.05, 0.25, 1, 10 and 50 μM. All experiments are performed in duplicate.

CYP 2C19 = CYP 2C19 (Homo sapiens, UniProt P33261); experiment: CYP450 inhibition; assay type: in vitro ADME
CYP 2C19, sequence (P33261 whole entry): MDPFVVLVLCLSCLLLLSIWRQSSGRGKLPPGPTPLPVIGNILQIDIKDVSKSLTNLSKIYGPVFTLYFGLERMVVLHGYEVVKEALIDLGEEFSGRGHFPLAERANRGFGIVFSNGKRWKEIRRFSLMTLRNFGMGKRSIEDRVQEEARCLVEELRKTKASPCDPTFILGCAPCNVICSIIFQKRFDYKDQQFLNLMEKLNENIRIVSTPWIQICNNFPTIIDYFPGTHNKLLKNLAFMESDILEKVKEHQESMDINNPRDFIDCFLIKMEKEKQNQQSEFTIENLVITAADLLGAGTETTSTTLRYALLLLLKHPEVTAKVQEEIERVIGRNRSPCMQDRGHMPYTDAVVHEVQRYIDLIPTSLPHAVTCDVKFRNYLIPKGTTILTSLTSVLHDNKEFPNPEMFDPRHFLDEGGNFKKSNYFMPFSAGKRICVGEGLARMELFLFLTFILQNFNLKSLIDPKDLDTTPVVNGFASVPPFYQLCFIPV
Experimental: as §1

Plasma stability = assay type: in vitro ADME
Experimental: Thaw the frozen plasma immediately in a 37° C. water bath. Centrifuge plasma at 3,220 g for 10 minutes at room temperature to remove clots and collect supernatant into a fresh tube. Check and record the pH of the plasma. (Note: a. Only use plasma that has been thawed no more than twice since arrival. b. Only use plasma within the range of pH 7 to pH 8.)
The working solutions of test compounds and control compound are prepared in 50% water/50% acetonitrile and DMSO at the concentration of 100 μM, respectively. Propantheline is used as positive control for human and mouse plasma stability assay and mevinolin is used as the positive control for dog and rat plasma stability assay.
Add 5 μL of 100 μM working solution to 495 μL of pre-incubated human, monkey, dog, rat or mouse plasma to reach a final concentration of 1 μM. The final concentration of organic solvents is 0.5%. The assay is performed in duplicate. Incubate the reaction samples at 37° C. water bath with shaking at approximately 60 rpm. Take aliquots of 50 μL from the reaction samples at 0, 15, 30, 45, 60 and 120 minutes. Stop the reaction by adding 300 μL of room temperature quench solution (Acetonitrile containing internal standards (IS, 200 nM Labetalol, 100 nM Alprazolam and 2 μM Ketoprofen)). Vortex for 5 minutes. Centrifuge samples in plate at 3,220 g for 30 minutes at room temperature to precipitate protein. Transfer 100 μL of the supernatant to a new plate. The supernatant may be diluted with 100 μL or 200 μL water according to the LC/MS signal response and peak shape. Mix well and analyze samples using LC/MS/MS.

RPMI-8226 = experiment: NCI screening panel (SRB); assay type: cell-based; conditions: Homo sapiens, RPMI-8226 (Leukemia), 48 h; for CC50: read-out: LC50 (the source's name)
A549/ATCC = experiment: NCI screening panel (SRB); assay type: cell-based; conditions: Homo sapiens, A549/ATCC (NSCLC), 48 h; for CC50: read-out: LC50 (the source's name)
NCI-H226 = experiment: NCI screening panel (SRB); assay type: cell-based; conditions: Homo sapiens, NCI-H226 (NSCLC), 48 h; for CC50: read-out: LC50 (the source's name)
HCC-2998 = experiment: NCI screening panel (SRB); assay type: cell-based; conditions: Homo sapiens, HCC-2998 (Colon), 48 h; for CC50: read-out: LC50 (the source's name)
KM12 = experiment: NCI screening panel (SRB); assay type: cell-based; conditions: Homo sapiens, KM12 (Colon), 48 h; for CC50: read-out: LC50 (the source's name)
SW-620 = experiment: NCI screening panel (SRB); assay type: cell-based; conditions: Homo sapiens, SW-620 (Colon), 48 h; for CC50: read-out: LC50 (the source's name)
U251 = experiment: NCI screening panel (SRB); assay type: cell-based; conditions: Homo sapiens, U-251, U251 (CNS), 48 h; for CC50: read-out: LC50 (the source's name)
LOXIMVI = experiment: NCI screening panel (SRB); assay type: cell-based; conditions: Homo sapiens, LOX IMVI, LOXIMVI (Melanoma), 48 h; for CC50: read-out: LC50 (the source's name)
SK-MEL-28 = experiment: NCI screening panel (SRB); assay type: cell-based; conditions: Homo sapiens, SK-MEL-28 (Melanoma), 48 h; for CC50: read-out: LC50 (the source's name)
SK-MEL-5 = experiment: NCI screening panel (SRB); assay type: cell-based; conditions: Homo sapiens, SK-MEL-5 (Melanoma), 48 h; for CC50: read-out: LC50 (the source's name)
IGROV1 = experiment: NCI screening panel (SRB); assay type: cell-based; conditions: Homo sapiens, IGROV-1, IGROV1 (Ovarian), 48 h; for CC50: read-out: LC50 (the source's name)
OVCAR-8 = experiment: NCI screening panel (SRB); assay type: cell-based; conditions: Homo sapiens, OVCAR-8 (Ovarian), 48 h; for CC50: read-out: LC50 (the source's name)
NCI/ADR-RES = experiment: NCI screening panel (SRB); assay type: cell-based; conditions: Homo sapiens, NCI/ADR-RES (Ovarian), 48 h; for CC50: read-out: LC50 (the source's name)
A498 = experiment: NCI screening panel (SRB); assay type: cell-based; conditions: Homo sapiens, A498 (Renal), 48 h; for CC50: read-out: LC50 (the source's name)
SN12C = experiment: NCI screening panel (SRB); assay type: cell-based; conditions: Homo sapiens, SN12C (Renal), 48 h; for CC50: read-out: LC50 (the source's name)
EGFR = EGFR (Homo sapiens, UniProt P00533); experiment: Kinase assays, selectivity panel (qPCR); conditions: read-out: % Control @ 300 nM
EGFR, sequence (P00533 25-1210): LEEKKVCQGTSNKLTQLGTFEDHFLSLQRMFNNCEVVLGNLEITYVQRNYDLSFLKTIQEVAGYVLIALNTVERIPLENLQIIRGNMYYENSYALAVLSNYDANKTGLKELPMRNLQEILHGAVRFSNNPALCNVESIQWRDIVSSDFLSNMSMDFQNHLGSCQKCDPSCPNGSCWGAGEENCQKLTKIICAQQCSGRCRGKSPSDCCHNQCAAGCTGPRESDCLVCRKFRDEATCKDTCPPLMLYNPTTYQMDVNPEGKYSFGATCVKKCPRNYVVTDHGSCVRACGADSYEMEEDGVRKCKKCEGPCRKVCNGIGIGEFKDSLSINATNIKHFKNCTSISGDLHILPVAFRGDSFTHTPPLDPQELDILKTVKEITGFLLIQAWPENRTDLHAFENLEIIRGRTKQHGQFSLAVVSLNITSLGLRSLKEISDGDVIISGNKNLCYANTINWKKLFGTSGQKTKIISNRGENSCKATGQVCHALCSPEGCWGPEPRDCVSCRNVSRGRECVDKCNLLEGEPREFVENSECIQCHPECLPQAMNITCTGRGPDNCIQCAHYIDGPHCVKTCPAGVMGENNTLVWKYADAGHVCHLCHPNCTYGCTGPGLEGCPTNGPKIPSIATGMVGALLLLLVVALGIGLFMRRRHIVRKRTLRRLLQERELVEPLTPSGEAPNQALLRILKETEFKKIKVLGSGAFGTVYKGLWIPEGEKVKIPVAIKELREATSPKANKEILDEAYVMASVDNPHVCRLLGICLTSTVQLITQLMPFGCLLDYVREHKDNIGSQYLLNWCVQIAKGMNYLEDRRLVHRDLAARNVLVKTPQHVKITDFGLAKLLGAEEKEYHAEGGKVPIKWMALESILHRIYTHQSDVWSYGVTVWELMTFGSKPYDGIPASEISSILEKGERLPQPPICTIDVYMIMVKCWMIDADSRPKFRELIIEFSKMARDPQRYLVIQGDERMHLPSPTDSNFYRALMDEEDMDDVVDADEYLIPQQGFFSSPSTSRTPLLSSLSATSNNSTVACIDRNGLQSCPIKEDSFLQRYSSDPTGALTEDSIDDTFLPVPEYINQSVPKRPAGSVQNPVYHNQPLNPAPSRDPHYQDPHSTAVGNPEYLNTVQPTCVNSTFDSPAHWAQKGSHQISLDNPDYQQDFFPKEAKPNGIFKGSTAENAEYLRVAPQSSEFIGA

[1] = target: EGFR (L747-E749del, A750P) (Homo sapiens, UniProt P00533, A750P/DEL747-749); experiment: Kinase assays, selectivity panel (qPCR); conditions: read-out: % Control @ 300 nM
EGFR (L747-E749del, A750P), sequence (P00533 with tags, fused parts or gaps DEL747-749/A750P): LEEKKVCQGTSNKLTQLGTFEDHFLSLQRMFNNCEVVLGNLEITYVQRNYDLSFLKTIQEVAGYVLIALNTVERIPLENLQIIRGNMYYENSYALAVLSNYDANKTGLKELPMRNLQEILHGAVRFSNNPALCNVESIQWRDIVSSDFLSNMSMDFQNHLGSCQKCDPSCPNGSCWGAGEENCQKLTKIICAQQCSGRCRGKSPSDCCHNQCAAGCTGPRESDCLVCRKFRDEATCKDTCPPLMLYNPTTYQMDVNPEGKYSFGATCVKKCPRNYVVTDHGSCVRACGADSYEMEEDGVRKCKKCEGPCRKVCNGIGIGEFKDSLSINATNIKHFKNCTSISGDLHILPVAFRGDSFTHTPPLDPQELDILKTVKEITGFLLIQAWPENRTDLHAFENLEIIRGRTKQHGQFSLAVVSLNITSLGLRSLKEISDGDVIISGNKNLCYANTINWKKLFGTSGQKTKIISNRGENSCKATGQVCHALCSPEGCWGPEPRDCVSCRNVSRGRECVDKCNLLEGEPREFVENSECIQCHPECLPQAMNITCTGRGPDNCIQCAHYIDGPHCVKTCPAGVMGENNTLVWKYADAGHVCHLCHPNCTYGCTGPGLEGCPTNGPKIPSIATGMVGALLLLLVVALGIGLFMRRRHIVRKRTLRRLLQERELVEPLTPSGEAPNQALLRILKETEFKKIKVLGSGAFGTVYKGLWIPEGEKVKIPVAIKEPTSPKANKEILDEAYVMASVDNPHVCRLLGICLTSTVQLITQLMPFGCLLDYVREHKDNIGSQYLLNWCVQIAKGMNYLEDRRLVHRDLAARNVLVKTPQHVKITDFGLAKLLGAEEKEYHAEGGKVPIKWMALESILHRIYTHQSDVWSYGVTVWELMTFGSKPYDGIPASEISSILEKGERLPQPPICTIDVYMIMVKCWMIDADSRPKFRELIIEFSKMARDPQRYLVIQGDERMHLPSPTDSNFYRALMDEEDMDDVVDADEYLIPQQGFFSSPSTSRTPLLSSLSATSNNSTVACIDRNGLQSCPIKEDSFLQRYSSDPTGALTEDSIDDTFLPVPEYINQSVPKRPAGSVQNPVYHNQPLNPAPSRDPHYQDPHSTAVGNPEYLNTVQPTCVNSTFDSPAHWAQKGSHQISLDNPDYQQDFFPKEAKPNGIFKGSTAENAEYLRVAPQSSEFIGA

EGFR (L861Q) = EGFR (L861Q) (Homo sapiens, UniProt P00533, L861Q); experiment: Kinase assays, selectivity panel (qPCR); conditions: read-out: % Control @ 300 nM
EGFR (L861Q), sequence (P00533 25-1210 L861Q): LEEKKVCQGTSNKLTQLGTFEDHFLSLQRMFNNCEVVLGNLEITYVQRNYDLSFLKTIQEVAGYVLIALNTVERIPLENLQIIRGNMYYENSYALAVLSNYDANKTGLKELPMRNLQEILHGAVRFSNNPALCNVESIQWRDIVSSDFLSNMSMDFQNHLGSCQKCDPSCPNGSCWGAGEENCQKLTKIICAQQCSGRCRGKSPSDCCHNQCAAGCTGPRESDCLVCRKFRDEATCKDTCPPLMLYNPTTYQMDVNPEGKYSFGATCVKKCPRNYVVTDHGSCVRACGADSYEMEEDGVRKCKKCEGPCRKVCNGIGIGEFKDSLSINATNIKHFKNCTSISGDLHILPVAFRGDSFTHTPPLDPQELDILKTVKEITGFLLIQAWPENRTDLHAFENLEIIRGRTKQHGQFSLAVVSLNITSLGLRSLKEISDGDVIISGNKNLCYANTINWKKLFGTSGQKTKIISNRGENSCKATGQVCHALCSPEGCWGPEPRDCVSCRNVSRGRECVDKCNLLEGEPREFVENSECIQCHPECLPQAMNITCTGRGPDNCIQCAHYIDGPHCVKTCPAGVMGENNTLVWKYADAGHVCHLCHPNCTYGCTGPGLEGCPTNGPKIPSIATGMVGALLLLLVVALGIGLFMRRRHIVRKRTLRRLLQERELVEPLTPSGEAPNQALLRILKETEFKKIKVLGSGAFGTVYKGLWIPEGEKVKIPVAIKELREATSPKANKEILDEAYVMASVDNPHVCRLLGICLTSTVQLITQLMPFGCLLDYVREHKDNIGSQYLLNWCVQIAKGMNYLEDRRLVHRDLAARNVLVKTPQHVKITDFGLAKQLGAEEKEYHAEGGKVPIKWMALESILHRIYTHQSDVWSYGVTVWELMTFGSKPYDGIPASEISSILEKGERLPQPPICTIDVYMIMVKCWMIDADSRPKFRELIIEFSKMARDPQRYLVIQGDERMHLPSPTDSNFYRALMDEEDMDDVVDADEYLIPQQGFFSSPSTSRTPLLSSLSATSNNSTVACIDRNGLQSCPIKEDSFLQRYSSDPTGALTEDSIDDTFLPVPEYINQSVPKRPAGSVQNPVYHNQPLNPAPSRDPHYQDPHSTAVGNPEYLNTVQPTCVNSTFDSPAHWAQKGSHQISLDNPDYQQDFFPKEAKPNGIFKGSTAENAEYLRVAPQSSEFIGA

ERBB4 = ERBB4 (Homo sapiens, UniProt Q15303); experiment: Kinase assays, selectivity panel (qPCR); conditions: read-out: % Control @ 300 nM

CYP 1A2, sequence (P05177 whole entry): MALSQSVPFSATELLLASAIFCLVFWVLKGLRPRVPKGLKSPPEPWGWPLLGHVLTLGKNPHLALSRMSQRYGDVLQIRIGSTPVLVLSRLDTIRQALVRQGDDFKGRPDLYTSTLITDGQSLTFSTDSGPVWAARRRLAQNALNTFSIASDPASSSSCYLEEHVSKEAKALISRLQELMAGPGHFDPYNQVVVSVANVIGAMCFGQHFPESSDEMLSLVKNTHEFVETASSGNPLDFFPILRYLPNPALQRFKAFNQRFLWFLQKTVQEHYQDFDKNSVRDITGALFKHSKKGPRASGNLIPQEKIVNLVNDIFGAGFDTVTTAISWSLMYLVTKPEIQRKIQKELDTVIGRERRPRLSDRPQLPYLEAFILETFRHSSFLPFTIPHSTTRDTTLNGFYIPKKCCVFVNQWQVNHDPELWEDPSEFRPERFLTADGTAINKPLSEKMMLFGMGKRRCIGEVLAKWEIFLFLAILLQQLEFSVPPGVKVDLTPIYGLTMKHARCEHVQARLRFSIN

SMILES: CN(C)C/C=C/C(=O)Nc1cc2c(Nc3cccc(Cl)c3F)ncnc2cc1OCCOC(F)F.O=C(O)/C=C\C(=O)O [Example I-5-MA, (E)-N-[4-(3-chloro-2-fluoro-anilino)-7-[2-(difluoromethoxy)ethoxy]quinazolin-6-yl]-4-(dimethylamino)but-2-enamide dimaleic acid salt]
IC50 (CYP 1A2): > 50 µM
IC50 (CYP 2C19): 29.1 µM
Dog Remaining Percentage (%) (Plasma stability; 60 min): 104.57%
Human Remaining Percentage (%) (Plasma stability; 60 min): 101.95%
Monkey Remaining Percentage (%) (Plasma stability; 60 min): 85.79%
Mouse Remaining Percentage (%) (Plasma stability; 60 min): 95.45%
Rat Remaining Percentage (%) (Plasma stability; 60 min): 99.28%
Dog Remaining Percentage (%) (Plasma stability; 120 min): 102.13%
Human Remaining Percentage (%) (Plasma stability; 120 min): 95.45%
Monkey Remaining Percentage (%) (Plasma stability; 120 min): 83.32%
Mouse Remaining Percentage (%) (Plasma stability; 120 min): 105.25%
Rat Remaining Percentage (%) (Plasma stability; 120 min): 95.14%

SMILES: CN(C)C/C=C/C(=O)Nc1cc2c(Nc3ccc(F)c(Cl)c3F)ncnc2cc1OCCOC(F)F.O=C(O)/C=C\C(=O)O.O=C(O)/C=C\C(=O)O [Example I-9-MA, (E)-N-[4-(3-chloro-2,4-difluoro-anilino)-7-[2-(difluoromethoxy)ethoxy]quinazolin-6-yl]-4-(dimethylamino)but-2-enamide di-maleic acid salt]
GI50 (RPMI-8226): 1.29 µM
CC50 (RPMI-8226): > 100 µM
GI50 (A549/ATCC): 0.77 µM
CC50 (A549/ATCC): 36.3 µM
GI50 (NCI-H226): 1.71 µM
CC50 (NCI-H226): 9.7 µM
GI50 (HCC-2998): 1.14 µM
CC50 (HCC-2998): 5.67 µM
GI50 (KM12): 1.88 µM
CC50 (KM12): 29.2 µM
GI50 (SW-620): 1.52 µM
CC50 (SW-620): 52.7 µM
GI50 (U251): 2.17 µM
CC50 (U251): 29.6 µM
GI50 (LOXIMVI): 0.944 µM
CC50 (LOXIMVI): 4.91 µM
GI50 (SK-MEL-28): 2.29 µM
CC50 (SK-MEL-28): 36.2 µM
GI50 (SK-MEL-5): 1.65 µM
CC50 (SK-MEL-5): 7.39 µM
GI50 (IGROV1): < 0.01 µM
CC50 (IGROV1): 32.5 µM
GI50 (OVCAR-8): 1.09 µM
CC50 (OVCAR-8): 32.7 µM
GI50 (NCI/ADR-RES): 0.839 µM
CC50 (NCI/ADR-RES): > 100 µM
GI50 (A498): 0.319 µM
CC50 (A498): 6 µM
GI50 (SN12C): 0.054 µM
CC50 (SN12C): 28.1 µM
remaining activity at 0.3 µM (EGFR): 0.7%
remaining activity at 0.3 µM [1]: 0.45%
remaining activity at 0.3 µM (EGFR (L861Q)): 0.1%
remaining activity at 0.3 µM (ERBB4): 1.8%

SMILES: O=C(/C=C/CN1CCCCC1)Nc1cc2c(Nc3ccc(F)c(Cl)c3F)ncnc2cc1OCCOC(F)F.O=C(O)/C=C\C(=O)O.O=C(O)/C=C\C(=O)O [Example I-10-MA, (E)-N-[4-(3-chloro-2,4-difluoro-anilino)-7-[2-(difluoromethoxy)ethoxy]quinazolin-6-yl]-4-(1-piperidyl)but-2-enamide di-maleic acid salt]
GI50 (RPMI-8226): 1.64 µM
CC50 (RPMI-8226): 58.9 µM
GI50 (A549/ATCC): 1 µM
CC50 (A549/ATCC): 36.6 µM
GI50 (NCI-H226): 1.77 µM
CC50 (NCI-H226): > 100 µM
GI50 (HCC-2998): 1.8 µM
CC50 (HCC-2998): 7.85 µM
GI50 (KM12): 2.67 µM
CC50 (KM12): 34.3 µM
GI50 (SW-620): 1.81 µM
CC50 (SW-620): 34.7 µM
GI50 (U251): 2.17 µM
CC50 (U251): 40.7 µM
GI50 (LOXIMVI): 1.34 µM
CC50 (LOXIMVI): 5.49 µM
GI50 (SK-MEL-28): 2.49 µM
CC50 (SK-MEL-28): 36.5 µM
GI50 (SK-MEL-5): 1.63 µM
CC50 (SK-MEL-5): 6.25 µM
GI50 (IGROV1): 0.0331 µM
CC50 (IGROV1): > 100 µM
GI50 (OVCAR-8): 1.35 µM
CC50 (OVCAR-8): > 100 µM
GI50 (NCI/ADR-RES): 1 µM
CC50 (NCI/ADR-RES): > 100 µM
GI50 (A498): 0.313 µM
CC50 (A498): 5.92 µM
GI50 (SN12C): 0.281 µM
CC50 (SN12C): 41.2 µM
remaining activity at 0.3 µM (EGFR): 2.7%
remaining activity at 0.3 µM [1]: 0.9%
remaining activity at 0.3 µM (EGFR (L861Q)): 0.75%
remaining activity at 0.3 µM (ERBB4): 3.2%

IC50 (CYP 1A2): > 50 µM
IC50 (CYP 2C19): 47.8 µM
Dog Remaining Percentage (%) (Plasma stability; 60 min): 111.61%
Human Remaining Percentage (%) (Plasma stability; 60 min): 94.78%
Monkey Remaining Percentage (%) (Plasma stability; 60 min): 102.98%
Mouse Remaining Percentage (%) (Plasma stability; 60 min): 101.81%
Rat Remaining Percentage (%) (Plasma stability; 60 min): 101.43%
Dog Remaining Percentage (%) (Plasma stability; 120 min): 102.15%
Human Remaining Percentage (%) (Plasma stability; 120 min): 98.62%
Monkey Remaining Percentage (%) (Plasma stability; 120 min): 97.24%
Mouse Remaining Percentage (%) (Plasma stability; 120 min): 106.59%
Rat Remaining Percentage (%) (Plasma stability; 120 min): 95.31%
SMILES: CN(C)C/C=C/C(=O)Nc1cc2c(Nc3ccc(F)c(Cl)c3)ncnc2cc1O[C@H]1CCOC1 [Afatinib, reference compound]
